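1) Cells in 96-well plates. 2) Compound, 48 h, 5 concentrations. 3) Linear interpolation between surrounding doses. 4) Unreached endpoint = highest concentration. GI50 marks 50% less growth.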 Active and inactive are the calls of the source. No stated cut-off is given here; in the data, active = GI50 up to about 1.1 µM and inactive = higher.
Assays:
Experiment in all cases: inhibition of tumour cell growth, NCI panel, 48 h
CAKI-1 = system: CAKI-1
SNB-19 = system: SNB-19
SR = system: SR
NCI/ADR-RES = system: NCI/ADR-RES
SF-539 = system: SF-539
RXF 393 = system: RXF 393
NCI-H522 = system: NCI-H522
SN12C = system: SN12C
UO-31 = system: UO-31
SK-MEL-5 = system: SK-MEL-5
HCT-116 = system: HCT-116
DU-145 = system: DU-145
MDA-MB-231 = system: MDA-MB-231
UACC-62 = system: UACC-62
IGROV-1 = system: IGROV-1
MCF7 = system: MCF7
RPMI-8226 = system: RPMI-8226
NCI-H460 = system: NCI-H460
OVCAR-8 = system: OVCAR-8
UACC-257 = system: UACC-257

For `NCc1ccccc1.O=C(O)NCc1ccccc1`, the GI50 (CAKI-1) was 42.7 µM (inactive), the GI50 (SNB-19) was 40.3 µM (inactive) and the GI50 (SR) was 0.682 µM (active). The GI50 (NCI/ADR-RES) was 26.9 µM (inactive), the GI50 (SF-539) was 41.1 µM (inactive) and the GI50 (RXF 393) was 38.5 µM (inactive). The GI50 (NCI-H522) was 21.8 µM (inactive), the GI50 (SN12C) was 31.8 µM (inactive) and the GI50 (UO-31) was 24.3 µM (inactive). The GI50 (SK-MEL-5) was 16.8 µM (inactive), the GI50 (HCT-116) was 25.1 µM (inactive) and the GI50 (DU-145) was 42.8 µM (inactive). For the same compound, the GI50 (MDA-MB-231) was 10.3 µM (inactive), the GI50 (UACC-62) was 15.1 µM (inactive) and the GI50 (IGROV-1) was 26.1 µM (inactive). The GI50 (MCF7) was 34.8 µM (inactive), the GI50 (RPMI-8226) was 12.6 µM (inactive) and the GI50 (NCI-H460) was 26.5 µM (inactive). The GI50 (OVCAR-8) was 37.1 µM (inactive) and the GI50 (UACC-257) was 32 µM (inactive).

With `CN(C)c1ccc(Cc2cc3c(O)ccc(O)c3cc(Cc3ccc(N(C)C)cc3)c2=O)cc1` the GI50 (CAKI-1) was 6.46 µM (inactive), the GI50 (SNB-19) was 29.4 µM (inactive) and the GI50 (SR) was 3.08 µM (inactive). The GI50 (NCI/ADR-RES) was 27 µM (inactive), the GI50 (SF-539) was 26.1 µM (inactive) and the GI50 (RXF 393) was 9.31 µM (inactive). For the same compound, the GI50 (NCI-H522) was 3.73 µM (inactive), the GI50 (SN12C) was 28.2 µM (inactive) and the GI50 (UO-31) was 13.1 µM (inactive). For the same compound, the GI50 (SK-MEL-5) was 19.2 µM (inactive), the GI50 (HCT-116) was 11.7 µM (inactive) and the GI50 (DU-145) was 26.9 µM (inactive). For the same compound, the GI50 (MDA-MB-231) was 20.1 µM (inactive), the GI50 (UACC-62) was 26 µM (inactive) and the GI50 (IGROV-1) was 16.1 µM (inactive). For the same compound, the GI50 (MCF7) was 17.3 µM (inactive), the GI50 (RPMI-8226) was 6.25 µM (inactive) and the GI50 (NCI-H460) was 37.4 µM (inactive). The GI50 (OVCAR-8) was 17.1 µM (inactive) and the GI50 (UACC-257) was 21.1 µM (inactive).

`Cc1cn([C@@H]2C[C@@H]2CO)c(=O)[nH]c1=O` was tested, and the GI50 (CAKI-1) was > 100 µM (inactive), the GI50 (SNB-19) was > 100 µM (inactive) and the GI50 (SR) was > 100 µM (inactive). For the same compound, the GI50 (NCI/ADR-RES) was > 100 µM (inactive), the GI50 (SF-539) was > 100 µM (inactive) and the GI50 (RXF 393) was > 100 µM (inactive). The GI50 (NCI-H522) was > 100 µM (inactive), the GI50 (SN12C) was > 100 µM (inactive) and the GI50 (UO-31) was > 100 µM (inactive). For the same compound, the GI50 (SK-MEL-5) was > 100 µM (inactive), the GI50 (HCT-116) was > 100 µM (inactive) and the GI50 (DU-145) was > 100 µM (inactive). The GI50 (MDA-MB-231) was > 100 µM (inactive), the GI50 (UACC-62) was > 100 µM (inactive) and the GI50 (IGROV-1) was > 100 µM (inactive). For the same compound, the GI50 (MCF7) was > 100 µM (inactive), the GI50 (RPMI-8226) was > 100 µM (inactive) and the GI50 (NCI-H460) was > 100 µM (inactive). The GI50 (OVCAR-8) was > 100 µM (inactive) and the GI50 (UACC-257) was > 100 µM (inactive).

`O=C(C/C(=N/O)C(=O)NC1=C(Cl)C(=O)c2ccccc2C1=O)CC(c1ccccc1)c1c(O)c2ccccc2oc1=O` (stereo not given) was tested, and the GI50 (CAKI-1) was 17.3 µM (inactive), the GI50 (SNB-19) was 19.1 µM (inactive) and the GI50 (SR) was 7.35 µM (inactive). For the same compound, the GI50 (NCI/ADR-RES) was 11.2 µM (inactive), the GI50 (SF-539) was 8.11 µM (inactive) and the GI50 (RXF 393) was 13.2 µM (inactive). The GI50 (NCI-H522) was 13.2 µM (inactive), the GI50 (SN12C) was 8.97 µM (inactive) and the GI50 (UO-31) was 14.9 µM (inactive). For the same compound, the GI50 (SK-MEL-5) was 1.12 µM (inactive), the GI50 (HCT-116) was 4.51 µM (inactive) and the GI50 (DU-145) was 3.27 µM (inactive). The GI50 (MDA-MB-231) was 4.57 µM (inactive), the GI50 (UACC-62) was 3.14 µM (inactive) and the GI50 (IGROV-1) was 4.52 µM (inactive). The GI50 (MCF7) was 6.85 µM (inactive), the GI50 (RPMI-8226) was 19.1 µM (inactive) and the GI50 (NCI-H460) was 3.15 µM (inactive). The GI50 (OVCAR-8) was 10.8 µM (inactive) and the GI50 (UACC-257) was 18.5 µM (inactive).

In the case of `Cc1ccc(CC(=O)Nc2ccc(NC(=O)CNC(=O)/C=C/c3ccc(-c4ccccc4)cc3)cc2C(=O)c2ccccc2)cc1`, the GI50 (CAKI-1) is reported as 4.9 µM (inactive), the GI50 (SNB-19) is reported as 4.57 µM (inactive) and the GI50 (SR) is reported as 1.84 µM (inactive). The GI50 (NCI/ADR-RES) was 9.71 µM (inactive), the GI50 (SF-539) was 2.7 µM (inactive) and the GI50 (RXF 393) was 2.38 µM (inactive). For the same compound, the GI50 (NCI-H522) was 5.13 µM (inactive), the GI50 (SN12C) was 2.74 µM (inactive) and the GI50 (UO-31) was 11.8 µM (inactive). The GI50 (SK-MEL-5) was 1.69 µM (inactive), the GI50 (HCT-116) was 1.36 µM (inactive) and the GI50 (DU-145) was 2.49 µM (inactive). The GI50 (MDA-MB-231) was 2.62 µM (inactive), the GI50 (UACC-62) was 13.1 µM (inactive) and the GI50 (IGROV-1) was 8.24 µM (inactive). The GI50 (MCF7) was 1.82 µM (inactive), the GI50 (RPMI-8226) was 10.4 µM (inactive) and the GI50 (NCI-H460) was 2.86 µM (inactive). For the same compound, the GI50 (OVCAR-8) was 1.59 µM (inactive) and the GI50 (UACC-257) was 6.32 µM (inactive).

For `O=C1OC2C(O)COC2(O)C1(O)C(C[N+](=O)[O-])c1ccc(Cl)cc1` (stereo not given), the GI50 (CAKI-1) was 15.5 µM (inactive), the GI50 (SNB-19) was 15.2 µM (inactive) and the GI50 (SR) was 4.26 µM (inactive). The GI50 (NCI/ADR-RES) was 21.9 µM (inactive), the GI50 (SF-539) was 3.97 µM (inactive) and the GI50 (RXF 393) was 3.29 µM (inactive). The GI50 (NCI-H522) was 9.27 µM (inactive), the GI50 (SN12C) was 13.7 µM (inactive) and the GI50 (UO-31) was 8.79 µM (inactive). The GI50 (SK-MEL-5) was 8.17 µM (inactive), the GI50 (HCT-116) was 1.79 µM (inactive) and the GI50 (DU-145) was 18.2 µM (inactive). For the same compound, the GI50 (MDA-MB-231) was 30.2 µM (inactive), the GI50 (UACC-62) was 10 µM (inactive) and the GI50 (IGROV-1) was 9.38 µM (inactive). The GI50 (MCF7) was 1.98 µM (inactive), the GI50 (RPMI-8226) was 0.959 µM (active) and the GI50 (NCI-H460) was 13.7 µM (inactive). The GI50 (OVCAR-8) was 10.1 µM (inactive) and the GI50 (UACC-257) was 6.68 µM (inactive).

In the case of `Cc1cc(/N=C/c2ccc(Cl)cc2)n(-c2ccccc2)n1`, the GI50 (CAKI-1) is reported as 39 µM (inactive), the GI50 (SNB-19) is reported as 61.1 µM (inactive) and the GI50 (SR) is reported as 31 µM (inactive). For the same compound, the GI50 (NCI/ADR-RES) was 40.9 µM (inactive), the GI50 (SF-539) was > 100 µM (inactive) and the GI50 (RXF 393) was 22.9 µM (inactive). For the same compound, the GI50 (NCI-H522) was 23.1 µM (inactive), the GI50 (SN12C) was 39.4 µM (inactive) and the GI50 (UO-31) was 59 µM (inactive). For the same compound, the GI50 (SK-MEL-5) was 27.6 µM (inactive), the GI50 (HCT-116) was 26.2 µM (inactive) and the GI50 (DU-145) was 50.9 µM (inactive). For the same compound, the GI50 (MDA-MB-231) was > 100 µM (inactive), the GI50 (UACC-62) was 54.2 µM (inactive) and the GI50 (IGROV-1) was 45.7 µM (inactive). For the same compound, the GI50 (MCF7) was 32.2 µM (inactive), the GI50 (RPMI-8226) was 24.6 µM (inactive) and the GI50 (NCI-H460) was 43.1 µM (inactive). For the same compound, the GI50 (OVCAR-8) was 40.7 µM (inactive) and the GI50 (UACC-257) was 63.5 µM (inactive).

Reference: ChEMBL document CHEMBL1201862, “PubChem BioAssay data set” (2004)
